Here are results for 10 molecules from patent publication US11780830B2, “Triazolone derivatives or salts thereof and pharmaceutical compositions comprising the same” (YUHAN CORPORATION, priority 2018, dated 2023).

What all share (type): biochemical
Assay [1] addresses T1, recombinant human VAP-1 (Homo sapiens, UniProt Q16853).
T1 construct: purchased R&D systems
T1 sequence (Q16853 1-763): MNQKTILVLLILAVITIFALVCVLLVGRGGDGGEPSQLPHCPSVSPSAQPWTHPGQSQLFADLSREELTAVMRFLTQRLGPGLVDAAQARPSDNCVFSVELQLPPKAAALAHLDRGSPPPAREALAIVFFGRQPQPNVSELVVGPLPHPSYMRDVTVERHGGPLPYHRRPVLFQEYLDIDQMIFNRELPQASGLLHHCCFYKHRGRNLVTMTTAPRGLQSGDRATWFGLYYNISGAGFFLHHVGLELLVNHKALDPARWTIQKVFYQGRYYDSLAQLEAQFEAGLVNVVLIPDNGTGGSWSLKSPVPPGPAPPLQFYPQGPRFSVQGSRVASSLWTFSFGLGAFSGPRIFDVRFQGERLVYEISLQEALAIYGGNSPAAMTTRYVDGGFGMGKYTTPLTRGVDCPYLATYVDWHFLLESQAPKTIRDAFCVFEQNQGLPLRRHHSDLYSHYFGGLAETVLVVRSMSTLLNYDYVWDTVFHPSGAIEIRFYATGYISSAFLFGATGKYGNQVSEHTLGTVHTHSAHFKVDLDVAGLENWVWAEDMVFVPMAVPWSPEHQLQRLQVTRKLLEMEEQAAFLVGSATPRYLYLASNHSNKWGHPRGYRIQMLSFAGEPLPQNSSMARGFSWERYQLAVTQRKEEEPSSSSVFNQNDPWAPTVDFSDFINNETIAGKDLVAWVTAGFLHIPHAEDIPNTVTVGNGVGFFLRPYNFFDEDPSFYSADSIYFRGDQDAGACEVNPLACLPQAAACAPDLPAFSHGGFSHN
The assay can be described thus: Activity on recombinant human VAP-1, HRP-coupled Amplex Red hydrogen peroxide assay. The settings on record: substrate 1 mM benzylamine; compound incubated with enzyme at 37° C. for 30 minutes; pH 7.4; read-out: Inhibitory Activity (IC50, nM) human VAP-1. The essentials: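 Enzyme in 50 mM sodium phosphate (pH 7.4) is exposed to test compound for 30 min at 37 °C. Benzylamine (1 mM) with HRP and Amplex Red then starts the reaction, and the fluorescence rate, relative to a DMSO-only control, gives IC50.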

Assay [2] concerns the target T2, recombinant human DAO (diamine oxidase) (Homo sapiens, UniProt P19801).
T2 construct: purchased R&D systems
T2 sequence (P19801 20-751): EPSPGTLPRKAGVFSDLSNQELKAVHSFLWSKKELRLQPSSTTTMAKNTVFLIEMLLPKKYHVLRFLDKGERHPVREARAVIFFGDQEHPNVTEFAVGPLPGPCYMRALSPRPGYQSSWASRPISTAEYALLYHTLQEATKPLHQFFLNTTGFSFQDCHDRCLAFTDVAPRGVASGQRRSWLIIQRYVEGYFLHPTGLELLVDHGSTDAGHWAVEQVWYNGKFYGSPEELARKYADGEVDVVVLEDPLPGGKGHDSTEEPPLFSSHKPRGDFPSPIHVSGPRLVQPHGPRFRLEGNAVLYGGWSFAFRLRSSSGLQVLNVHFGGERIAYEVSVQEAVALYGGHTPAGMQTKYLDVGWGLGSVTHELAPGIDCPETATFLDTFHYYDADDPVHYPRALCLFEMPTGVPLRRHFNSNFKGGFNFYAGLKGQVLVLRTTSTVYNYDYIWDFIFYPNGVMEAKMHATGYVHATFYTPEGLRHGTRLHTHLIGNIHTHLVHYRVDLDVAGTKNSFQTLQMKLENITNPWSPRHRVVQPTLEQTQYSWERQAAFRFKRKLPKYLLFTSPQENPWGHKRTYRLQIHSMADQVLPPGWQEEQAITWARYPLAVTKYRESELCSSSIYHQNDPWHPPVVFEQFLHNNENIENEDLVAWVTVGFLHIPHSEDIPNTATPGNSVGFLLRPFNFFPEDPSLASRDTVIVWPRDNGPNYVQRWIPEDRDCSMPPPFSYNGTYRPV
In words: Activity on recombinant human DAO, method similar to the VAP-1 assay. The settings on record: substrate 1 mM putrescine; read-out: Inhibitory Activity (IC50, nM) DAO. In outline: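 Inhibition of recombinant human diamine oxidase (DAO, R&D systems) was assessed by the same approach as the VAP-1 assay, using 1 mM putrescine as substrate. Hydrogen peroxide formed was detected through an HRP-coupled Amplex Red reaction yielding fluorescent resorufin, read at 544 nm excitation and 590 nm emission. IC50 values came from four-parameter logistic fitting in GraphPad Prism.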

The target in assay [3] is T3, recombinant human MAO-B (monoamine oxidase-B) (Homo sapiens, UniProt P27338).
T3 construct: purchased Sigma-Aldrich
T3 sequence (P27338 1-520): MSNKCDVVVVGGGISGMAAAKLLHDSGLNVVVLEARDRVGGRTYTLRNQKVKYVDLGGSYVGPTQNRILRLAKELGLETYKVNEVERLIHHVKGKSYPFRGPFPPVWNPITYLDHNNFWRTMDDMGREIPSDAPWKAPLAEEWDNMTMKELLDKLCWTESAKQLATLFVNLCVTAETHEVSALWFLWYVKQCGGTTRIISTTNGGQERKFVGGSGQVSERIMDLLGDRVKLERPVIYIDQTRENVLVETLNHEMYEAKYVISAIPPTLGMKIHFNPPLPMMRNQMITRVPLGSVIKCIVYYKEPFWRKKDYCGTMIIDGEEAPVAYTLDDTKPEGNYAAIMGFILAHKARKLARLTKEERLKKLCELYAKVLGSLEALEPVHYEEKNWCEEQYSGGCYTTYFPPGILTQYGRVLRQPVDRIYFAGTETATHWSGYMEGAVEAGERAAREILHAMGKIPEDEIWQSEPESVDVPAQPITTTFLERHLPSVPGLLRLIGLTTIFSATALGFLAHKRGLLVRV
In words: Activity on recombinant human MAO-B, method similar to the VAP-1 assay. The settings on record: substrate 1 mM benzylamine; read-out: Inhibitory Activity (IC50, nM) MAO-B. In outline: (§1)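 Enzyme in pH 7.4 phosphate buffer; 30 min, 37° C with compound (DMSO <1%); start with 200 uM Amplex Red + 1 U/mL HRP + tyramine 0.5 mM (MAO-A) or benzylamine 1 mM (MAO-B); kinetic read ex 544/em 590, 1-2 h; % rate decrease vs DMSO control → IC50, 4-parameter fit.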

The target in assay [4] is T4, recombinant human MAO-A (monoamine oxidase-A) (Homo sapiens, UniProt P21397).
T4 construct: purchased Sigma-Aldrich
T4 sequence (P21397 1-527): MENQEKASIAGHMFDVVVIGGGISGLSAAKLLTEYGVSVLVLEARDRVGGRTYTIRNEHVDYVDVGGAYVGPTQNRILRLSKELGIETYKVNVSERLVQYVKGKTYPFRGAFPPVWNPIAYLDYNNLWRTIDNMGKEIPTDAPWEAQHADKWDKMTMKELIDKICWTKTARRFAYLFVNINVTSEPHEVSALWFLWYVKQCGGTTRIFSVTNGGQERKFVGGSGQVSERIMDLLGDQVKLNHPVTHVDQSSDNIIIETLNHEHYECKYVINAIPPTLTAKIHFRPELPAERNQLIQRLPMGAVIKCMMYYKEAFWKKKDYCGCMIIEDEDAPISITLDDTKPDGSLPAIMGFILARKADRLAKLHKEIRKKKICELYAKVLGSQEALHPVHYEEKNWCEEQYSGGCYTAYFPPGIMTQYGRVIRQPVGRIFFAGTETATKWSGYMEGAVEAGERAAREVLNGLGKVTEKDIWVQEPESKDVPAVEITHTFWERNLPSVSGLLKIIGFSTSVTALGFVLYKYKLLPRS
The assay can be described thus: Activity on recombinant human MAO-A, method similar to the VAP-1 assay. The conditions noted are these: substrate 0.5 mM tyramine; read-out: Inhibitory Activity (IC50, nM) MAO-A. The essentials: as §1

Structures can show the parent of a compound that is named as a salt. Bounds are passed on as bounds.

One may read the IC50 as the midpoint of a concentration-inhibition curve. Take `CS(=O)(=O)c1ccc(-c2ccc3sc(Cn4cnn(C/C(=C/F)CN)c4=O)cc3c2)cc1` [Example 208, 2-[(2E)-2-(aminomethyl)-3-fluoroprop-2-en-1-yl]-4-({5-[4-(methylsulfonyl)phenyl]-1-benzothiophen-2-yl}methyl)-2,4-dihydro-3H-1,2,4-triazol-3-one]: the half-inhibitory concentration (IC50) is 1.2 nM in assay [1], 780 nM in assay [2], 26000 nM in assay [3] and more than 100000 nM in assay [4].

For the molecule `NC/C(=C\F)Cn1ncn(Cc2ccc(C#Cc3ccc4c(c3)NCCO4)s2)c1=O` [Example 134, 2-[(E)-2-(aminomethyl)-3-fluoro-allyl]-4-[[5-[2-(3,4-dihydro-2H-1,4-benzoxazin-6-yl)ethynyl]-2-thienyl]methyl]-1,2,4-triazol-3-one], the IC50 is 2 nM in assay [1], 2100 nM in assay [2], 300 nM in assay [3] and 7100 nM in assay [4].

`CN1Cc2cc(-c3ccc(Cn4cnn(C/C(=C/F)CN)c4=O)s3)ccc2NC1=O` [Example 147, 6-[5-({1-[(2E)-2-(aminomethyl)-3-fluoroprop-2-en-1-yl]-5-oxo-1,5-dihydro-4H-1,2,4-triazol-4-yl}methyl)thiophen-2-yl]-3-methyl-3,4-dihydroquinazolin-2(1H)-one]: the IC50 in assay [1] was 0.3 nM; in assay [2], 1000 nM; in assay [3], 6700 nM; in assay [4], more than 100000 nM.

Turning to `CN(C)c1ncc(-c2ccc(Cn3cnn(C/C(=C/F)CN)c3=O)s2)cc1F` [Example 173, 2-[(2E)-2-(aminomethyl)-3-fluoroprop-2-en-1-yl]-4-({5-[6-(dimethylamino)-5-fluoropyridin-3-yl]thiophen-2-yl}methyl)-2,4-dihydro-3H-1,2,4-triazol-3-one], the IC50 in assay [1] is 2.1 nM; in assay [2], 1200 nM; in assay [3], 2000 nM; in assay [4] it was more than 100000 nM.

As to `CN(C)S(=O)(=O)c1cccc(-c2ccc(Cn3cnn(C/C(=C/F)CN)c3=O)s2)c1` [Example 183, 3-[5-({1-[(2E)-2-(aminomethyl)-3-fluoroprop-2-en-1-yl]-5-oxo-1,5-dihydro-4H-1,2,4-triazol-4-yl}methyl)thiophen-2-yl]-N,N-dimethylbenzenesulfonamide], the IC50 was 1.2 nM in assay [1], 440 nM in assay [2], 220 nM in assay [3] and more than 100000 nM in assay [4].

Regarding `CN(C)c1cc(-c2ccc(Cn3cnn(C/C(=C/F)CN)c3=O)s2)ccc1F` [Example 6, 2-[(2E)-2-(aminomethyl)-3-fluoroprop-2-en-1-yl]-4-(5-[3-(dimethylamino)-4-fluorophenyl]thiophen-2-ylmethyl)-2,4-dihydro-3H-1,2,4-triazol-3-one hydrochloride], the IC50 is 3.4 nM in assay [1], 2900 nM in assay [2], 70 nM in assay [3] and more than 100000 nM in assay [4].

For the molecule `NC/C(=C\F)Cn1ncn(Cc2ccc(-c3ccc(CCO)cc3)s2)c1=O` [Example 171, 2-[(2E)-2-(aminomethyl)-3-fluoroprop-2-en-1-yl]-4-({5-[4-(2-hydroxyethyl)phenyl]thiophen-2-yl}methyl)-2,4-dihydro-3H-1,2,4-triazol-3-one], the half-inhibitory concentration (IC50) was 2.4 nM in assay [1], 16000 nM in assay [2], 740 nM in assay [3] and more than 100000 nM in assay [4].

`CC(=O)N1CCN(c2ccc(-c3ccc(Cn4cnn(C/C(=C/F)CN)c4=O)s3)cc2)CC1` [Example 24, 4-(5-[4-(4-acetylpiperazin-1-yl)phenyl]thiophen-2-ylmethyl)-2-[(2E)-2-(aminomethyl)-3-fluoroprop-2-en-1-yl]-2,4-dihydro-3H-1,2,4-triazol-3-one hydrochloride]: the IC50 in assay [1] is 1.4 nM; in assay [2], 670 nM; in assay [3], more than 10000 nM; in assay [4], 21000 nM.

For `Cc1cc(-c2ccc(Cn3cnn(C/C(=C/F)CN)c3=O)s2)cc2c(C(F)(F)F)cc(=O)[nH]c12` [Example 83, 6-[5-[[1-[(E)-2-(aminomethyl)-3-fluoro-allyl]-5-oxo-1,2,4-triazol-4-yl]methyl]-2-thienyl]-8-methyl-4-(trifluoromethyl)-1H-quinolin-2-one], the 50% inhibitory concentration (IC50) in assay [1] stood at 0.5 nM; in assay [2] it was 280 nM; in assay [3], 650 nM; in assay [4] it was 36000 nM.

For the molecule `CNC(=O)c1ccc(-c2ccc(Cn3cnn(C/C(=C/F)CN)c3=O)s2)cc1` [Example 176, 4-[5-({1-[(2E)-2-(aminomethyl)-3-fluoroprop-2-en-1-yl]-5-oxo-1,5-dihydro-4H-1,2,4-triazol-4-yl}methyl)thiophen-2-yl]-N-methylbenzamide], the 50% inhibitory concentration (IC50) in assay [1] was 1.5 nM; in assay [2] it was 1100 nM; in assay [3] it was 1900 nM; in assay [4] it was more than 100000 nM.
